Columns and labels:
LN-caP [1] = test: cells; conditions: Homo sapiens, LNCaP; for GI50: read-out: GI50 LN-caP; for CC50: read-out: LC50 LN-caP
HELA [2] = conditions: Cervix
RNA synthesis = test: Secondary Screening, Macromolecules Synthesis RNA; type: cell-based; conditions: Secondary Evaluation
DU-145 [3] = test: cells; conditions: Homo sapiens; for GI50: DU-145, read-out: GI50 DU-145; for CC50: DU-145, read-out: LC50 DU-145
IGROV-ET [4] = test: cells; conditions: for GI50: read-out: GI50 IGROV-ET; for CC50: read-out: LC50 IGROV-ET
Bacillus subtilis = test: Antimicrobial activity on solid medium, disk; type: cell-based; conditions: Bacillus subtilis, 10 μg/disk (6 mm diameter)
Description: Antimicrobial activity: On solid medium Bacillus subtilis. 10 μg/disk (6 mm diameter): 10 mm inhibition zone Spectroscopic Data: […]

PROTEIN synthesis = test: Secondary Screening, Macromolecules Synthesis PROTEIN; type: cell-based; conditions: Secondary Evaluation
SK-BR3 [5] = conditions: Breast
HT29 [6] = test: cells; conditions: Homo sapiens; for GI50: HT-29, read-out: GI50 HT29; for CC50: HT-29, read-out: LC50 HT29
K-562 [7] = test: cells; conditions: Homo sapiens; for GI50: K562, read-out: GI50 K-562; for CC50: K562, read-out: LC50 K-562
PANC1 [8] = conditions: Pancreas
LOVO [9] = test: cells; conditions: Homo sapiens; for GI50: read-out: GI50 LOVO; for CC50: read-out: LC50 LOVO
DNA synthesis = test: Secondary Screening, Macromolecules Synthesis DNA; type: cell-based; conditions: Secondary Evaluation
A549 [10] = conditions: NSCL
HELA [11] = test: cells; conditions: Homo sapiens; for GI50: read-out: GI50 HELA; for CC50: read-out: LC50 HELA
IGROV-ET [12] = conditions: Ovary
DU-145 [13] = conditions: Prostate
Apoptosis (NUCLEOSOMES) = test: Secondary Screening, Apoptosis NUCLEOSOMES; type: cell-based; conditions: Secondary Evaluation
LOVO-DOX [14] = conditions: Colon
DNA = test: Secondary Screening, DNA Binding GEL; conditions: Secondary Evaluation
IGROV [15] = test: cells; conditions: for GI50: read-out: GI50 IGROV; for CC50: read-out: LC50 IGROV
IGROV [16] = conditions: Ovary
HELA-APL [17] = test: cells; conditions: for GI50: read-out: GI50 HELA-APL; for CC50: read-out: LC50 HELA-APL
HELA-APL [18] = conditions: Cervix
SK-MEL-28 [19] = test: cells; conditions: Homo sapiens; for GI50: SK-MEL-28, read-out: GI50 SK-MEL-28; for CC50: SK-MEL-28, read-out: LC50 SK-MEL-28
HT29 [20] = conditions: Colon
A549 [21] = test: cells; conditions: Homo sapiens; for GI50: A549, read-out: GI50 A549; for CC50: A549, read-out: LC50 A549
K-562 [22] = conditions: Leukemia
SK-BR3 [23] = test: cells; conditions: Homo sapiens; for GI50: SK-BR-3, read-out: GI50 SK-BR3; for CC50: SK-BR-3, read-out: LC50 SK-BR3
PANC1 [24] = test: cells; conditions: Homo sapiens; for GI50: PANC-1, read-out: GI50 PANC1; for CC50: PANC-1, read-out: LC50 PANC1
LN-caP [25] = conditions: Prostate
SK-MEL-28 [26] = conditions: Melanoma
LOVO-DOX [27] = test: cells; conditions: for GI50: read-out: GI50 LOVO-DOX; for CC50: read-out: LC50 LOVO-DOX
LOVO [28] = conditions: Colon
[29] = Antibacterial and antitumoral activities, general statements; conditions: compared with safracin A / safracin B

SMILES: COC1=C(C)C(=O)C2=C(C1=O)C(CNC(=O)C(C)N)N1C(O)C3Cc4cc(C)c(OC)c(O)c4C(N3)C1C2 (centres unmarked) [Safracin D]
- GI50 (LN-caP [1]): 1.54 µM
- CC50 (LN-caP [1]): 9.78 µM
- TGI HELA (HELA [2]): 6.68 µM
- IC50 (RNA synthesis): 3.8 µM
- GI50 (DU-145 [3]): 5.22 µM
- CC50 (DU-145 [3]): 19 µM
- GI50 (IGROV-ET [4]): 1.33 µM
- CC50 (IGROV-ET [4]): 9.15 µM
- zone of inhibition at 10 µg/disc (Bacillus subtilis): 15 mm
- IC50 (PROTEIN synthesis): 19 µM
- TGI SK-BR3 (SK-BR3 [5]): 7.82 µM
- GI50 (HT29 [6]): 4.33 µM
- CC50 (HT29 [6]): > 19 µM
- GI50 (K-562 [7]): 0.604 µM
- CC50 (K-562 [7]): 3.78 µM
- TGI PANC1 (PANC1 [8]): 11 µM
- GI50 (LOVO [9]): 6.99 µM
- CC50 (LOVO [9]): > 19 µM
- IC50 (DNA synthesis): 15.2 µM
- TGI A549 (A549 [10]): 10.7 µM
- GI50 (HELA [11]): 3.76 µM
- CC50 (HELA [11]): 11.9 µM
- TGI IGROV-ET (IGROV-ET [12]): 3.34 µM
- TGI DU-145 (DU-145 [13]): 9.99 µM
- IC50 (Apoptosis (NUCLEOSOMES)): 2.85 µM
- TGI LOVO-DOX (LOVO-DOX [14]): 8.85 µM
- IC50 (DNA): 6.65 µM
- GI50 (IGROV [15]): 2.68 µM
- CC50 (IGROV [15]): 13.5 µM
- TGI IGROV (IGROV [16]): 6.02 µM
- GI50 (HELA-APL [17]): 2.28 µM
- CC50 (HELA-APL [17]): 12.1 µM
- TGI HELA-APL (HELA-APL [18]): 5.24 µM
- GI50 (SK-MEL-28 [19]): 3.51 µM
- CC50 (SK-MEL-28 [19]): 11 µM
- TGI HT29 (HT29 [20]): 17.9 µM
- GI50 (A549 [21]): 6.04 µM
- CC50 (A549 [21]): 18.8 µM
- TGI K-562 (K-562 [22]): 1.16 µM
- GI50 (SK-BR3 [23]): 4.71 µM
- CC50 (SK-BR3 [23]): 13 µM
- GI50 (PANC1 [24]): 4.77 µM
- CC50 (PANC1 [24]): > 19 µM
- TGI LN-caP (LN-caP [25]): 4.12 µM
- TGI SK-MEL-28 (SK-MEL-28 [26]): 6.21 µM
- GI50 (LOVO-DOX [27]): 4.75 µM
- CC50 (LOVO-DOX [27]): 16.5 µM
- TGI LOVO (LOVO [28]): 18.2 µM
- antibacterial and antitumoral activities (in words) [29]: the same antibacterial and antitumoral activities as safracin B and safracin A, respectively

SMILES: CCOC1=C(C)C(=O)C2=C(C1=O)C(CNC(=O)C(C)N)N1C(O)C3Cc4cc(C)c(OCC)c(O)c4C(C1C2)N3C (centres unmarked) [Safracin B (OEt)]
- GI50 (LN-caP [1]): 0.0484 µM
- CC50 (LN-caP [1]): 0.828 µM
- TGI HELA (HELA [2]): 0.315 µM
- IC50 (RNA synthesis): 0.176 µM
- GI50 (DU-145 [3]): 0.401 µM
- CC50 (DU-145 [3]): 16 µM
- GI50 (IGROV-ET [4]): 0.682 µM
- CC50 (IGROV-ET [4]): 6.37 µM
- zone of inhibition at 10 µg/disc (Bacillus subtilis): 17.5 mm
- IC50 (PROTEIN synthesis): > 17.6 µM
- TGI SK-BR3 (SK-BR3 [5]): 0.116 µM
- GI50 (HT29 [6]): 0.244 µM
- CC50 (HT29 [6]): > 17.6 µM
- GI50 (K-562 [7]): 0.0397 µM
- CC50 (K-562 [7]): 3.69 µM
- TGI PANC1 (PANC1 [8]): 2.06 µM
- GI50 (LOVO [9]): 0.443 µM
- CC50 (LOVO [9]): > 17.6 µM
- IC50 (DNA synthesis): 1.76 µM
- TGI A549 (A549 [10]): 1.16 µM
- GI50 (HELA [11]): 0.0892 µM
- CC50 (HELA [11]): 1.35 µM
- TGI IGROV-ET (IGROV-ET [12]): 1.19 µM
- TGI DU-145 (DU-145 [13]): 1.01 µM
- IC50 (Apoptosis (NUCLEOSOMES)): 0.0528 µM
- TGI LOVO-DOX (LOVO-DOX [14]): 9.88 µM
- IC50 (DNA): 17.6 µM
- GI50 (IGROV [15]): 0.0406 µM
- CC50 (IGROV [15]): 4.27 µM
- TGI IGROV (IGROV [16]): 0.0997 µM
- GI50 (HELA-APL [17]): 0.077 µM
- CC50 (HELA-APL [17]): 0.976 µM
- TGI HELA-APL (HELA-APL [18]): 0.274 µM
- GI50 (SK-MEL-28 [19]): 0.169 µM
- CC50 (SK-MEL-28 [19]): 1.13 µM
- TGI HT29 (HT29 [20]): 1.39 µM
- GI50 (A549 [21]): 0.501 µM
- CC50 (A549 [21]): 5.66 µM
- TGI K-562 (K-562 [22]): 0.108 µM
- GI50 (SK-BR3 [23]): 0.0482 µM
- CC50 (SK-BR3 [23]): 1.02 µM
- GI50 (PANC1 [24]): 0.649 µM
- CC50 (PANC1 [24]): 13.5 µM
- TGI LN-caP (LN-caP [25]): >17.6 µM
- TGI SK-MEL-28 (SK-MEL-28 [26]): 0.44 µM
- GI50 (LOVO-DOX [27]): 2.09 µM
- CC50 (LOVO-DOX [27]): > 17.6 µM
- TGI LOVO (LOVO [28]): 1.09 µM
- antibacterial and antitumoral activities (in words) [29]: as potent as the activities of safracin A and safracin B, respectively

— patent US7723068B2, “Gene cluster involved in safracin biosynthesis and its uses for genetic engineering” (PharmaMar, S.A., priority 2002, dated 2010)
